The record followed here is ChEMBL document CHEMBL1127878, “Substituted lactam biphenyltetrazoles as angiotensin II mediated antihypertensives” (Bioorg Med Chem Lett, 1994).

Molecules are shown by their SMILES.

Experiment [1] has as its system Rattus norvegicus. In words: Tested for total onset time(BP) after peroral administration of 30 mg/kg of dose in high renin rat. Format: functional. The note with it: route oral.
The subject of experiment [2] is Rattus norvegicus. In words: Tested for total duration time(BP) after peroral administration of 30 mg/kg of dose in high renin rat. The note with it: route oral. In kind it is functional.
Experiment [3] concerns the target T1, Type-1 angiotensin II receptor (Oryctolagus cuniculus, UniProt P34976).
T1 sequence (P34976 whole entry): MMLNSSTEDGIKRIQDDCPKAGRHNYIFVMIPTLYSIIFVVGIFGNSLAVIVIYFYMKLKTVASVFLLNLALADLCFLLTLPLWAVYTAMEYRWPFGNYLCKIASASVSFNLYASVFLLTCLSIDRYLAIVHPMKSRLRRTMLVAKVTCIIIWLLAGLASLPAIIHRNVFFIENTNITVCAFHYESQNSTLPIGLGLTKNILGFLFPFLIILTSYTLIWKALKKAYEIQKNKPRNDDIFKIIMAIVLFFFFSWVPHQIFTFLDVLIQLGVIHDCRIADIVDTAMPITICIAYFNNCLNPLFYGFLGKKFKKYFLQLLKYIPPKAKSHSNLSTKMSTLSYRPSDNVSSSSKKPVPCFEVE
The experiment in a line: In vitro binding affinity against Angiotensin II receptor in rabbit aorta rings. Format: tissue-based. The note with it: read-out: pA2 (converted).

Experiment [4] concerns Rattus norvegicus. In words: Tested for percent of maximal blood pressure drop in high renin rat after peroral administration of 30 mg/kg of dose. In kind it is functional. The conditions noted are these: route oral.
Experiment [5] deals with Rattus norvegicus. In words: Tested for total duration time(BP) after peroral administration of 30 mg/kg of dose in spontaneously hypertensive rat. Format: functional. The conditions noted are these: route oral.
The test system of experiment [6] is Rattus norvegicus. The experiment in a line: Tested for total onset time(BP) after peroral administration of 30 mg/kg of dose in spontaneously hypertensive rat. Format: functional. The note with it: route oral.
Experiment [7] has as its system Rattus norvegicus. The experiment in a line: Tested for percent of maximal blood pressure drop after peroral administration of 30 mg/kg in spontaneously hypertensive rat. In kind it is functional. The conditions noted are these: route oral.
In experiment [8] the test system is Rattus norvegicus. The experiment in a line: Dose (iv) required for graded reduction in mean arterial blood pressure in spontaneously hypertensive rat (also, 10 mg/kg). In kind it is functional.

`CCOC(=O)/C=C1\CC2(CCCC2)CC(=O)N1Cc1ccc(-c2ccccc2-c2nn[nH]n2)cc1`: the Onset in experiment [1] amounted to 2.5 h. In addition, the Duration in experiment [2] amounted to 21 h. Moreover, the Kb in experiment [3] was 12.6 nM. For the same compound, in experiment [4], the Max drop worked out at 46%.

Take `CCOC(=O)/C=C1\CC2(CCCCC2)CC(=O)N1Cc1ccc(-c2ccccc2-c2nn[nH]n2)cc1`: in experiment [5], the Duration came to 8 h. The same compound registered an Onset in experiment [6] of 0.25 h. The Kb in experiment [3] was 5.01 nM. Besides, the Max drop in experiment [4] and in experiment [7] was 100% throughout.

With `CCOC(=O)/C=C1\CC(CC)(CC)CC(=O)N1Cc1ccc(-c2ccccc2-c2nn[nH]n2)cc1` (stereo in doubt; 16), the Duration in experiment [5] (30 mg/kg) was determined as 24 h. The compound also gave an Onset in experiment [6] (30 mg/kg) of 0.25 h. Also, the Kb in experiment [3] is 7.94 nM. The Max drop in experiment [4] (30 mg/kg) and in experiment [7] (30 mg/kg) was 100% throughout.

`CCOC(=O)/C=C1\CC2(CCCCC2)C(=O)N1Cc1ccc(-c2ccccc2-c2nn[nH]n2)cc1`: in experiment [1], the Onset worked out at 1 h. Also, the Duration in experiment [2] turned out to be 17 h. Besides, in experiment [3], the Kb was 12.6 nM. The compound further came in with a Max drop in experiment [4] of 26%.

Turning to `CCOC(=O)/C=C1\CC(C)(C(C)C)CC(=O)N1Cc1ccc(-c2ccccc2-c2nn[nH]n2)cc1` (configuration not stated), in experiment [5], the Duration is 5 h. In experiment [6], this compound yielded an Onset of 1.25 h. For the same compound, the Kb in experiment [3] was 15.8 nM. Besides, the Max drop in experiment [4] and in experiment [7] was 70% each time.

Consider `CCOC(=O)/C=C1\CC(C)(CC)CC(=O)N1Cc1ccc(-c2ccccc2-c2nn[nH]n2)cc1` (stereo in doubt; 13), for which, in experiment [5] (30 mg/kg), the Duration turned out to be 16 h. Further, in experiment [6] (30 mg/kg), the Onset amounted to 0.5 h. In addition, the Kb in experiment [3] is 2.51 nM. Also, the Max drop in experiment [4] (30 mg/kg) and in experiment [7] (30 mg/kg) was 58% throughout.

In the case of `CCCCc1nc(Cl)c(CO)n1Cc1ccc(-c2ccccc2-c2nnn[nH]2)cc1` [LOSARTAN], the Duration in experiment [5] and in experiment [2] was 24 h throughout. The Onset in experiment [6] and in experiment [1] was 2 h each time. The Max drop in experiment [4] and in experiment [7] was 100% each time.

Turning to `CCOC(=O)/C=C1\C2C3CCC(C3)C2C(=O)N1Cc1ccc(-c2ccccc2-c2nn[nH]n2)cc1` (configuration not stated), the Onset in experiment [1] amounted to 1 h. Further, in experiment [2], the Duration is 17 h. The Kb in experiment [3] is 1 nM. In experiment [4], this compound yielded a Max drop of 26%.

`CCOC(=O)/C=C1\C2C3C=CC(CC3)C2C(=O)N1Cc1ccc(-c2ccccc2-c2nn[nH]n2)cc1` (stereo in doubt; 5) registered an Onset in experiment [1] (30 mg/kg) of 1.75 h. The same compound showed a Duration in experiment [2] (30 mg/kg) of 17 h. Further, in experiment [3], the Kb is 6.31 nM. In addition, the Max drop in experiment [4] (30 mg/kg) was determined as 29%.

For the compound `CCOC(=O)/C=C1\CC(C)(C)CC(=O)N1Cc1ccc(-c2ccccc2-c2nn[nH]n2)cc1`, the Onset in experiment [1] was 2 h. For the same compound, the Duration in experiment [2] is 5 h. In experiment [3], the Kb is 39.8 nM. This compound also registered a Max drop in experiment [4] of 17%.

As for `CCOC(=O)/C=C1\CC(CC)(CC)CC(=O)N1Cc1ccc(-c2ccccc2-c2nn[nH]n2)cc1` (stereo in doubt; 11), the Duration in experiment [5] (30 mg/kg) is 15 h. The Onset in experiment [6] (30 mg/kg) is 0.75 h. Besides, the Kb in experiment [3] is 3.98 nM. Besides, the Max drop in experiment [4] (30 mg/kg) and in experiment [7] (30 mg/kg) was 35% throughout.

In turn, `CCOC(=O)/C=C1\C2C3C=CC(CCC3)C2C(=O)N1Cc1ccc(-c2ccccc2-c2nn[nH]n2)cc1` (configuration not stated) showed a Duration in experiment [5] of 24 h. For the same compound, in experiment [6], the Onset came to 0.25 h. In addition, the Kb in experiment [3] was 20 nM. Further, the Max drop in experiment [4] and in experiment [7] was 96% in each case.

In turn, `CCCCC1(C)CC(=O)N(Cc2ccc(-c3ccccc3-c3nn[nH]n3)cc2)/C(=C/C(=O)OCC)C1` (configuration not stated) gave a Duration in experiment [5] of 24 h. The Onset in experiment [6] was determined as 0.5 h. In addition, in experiment [3], the Kb was 31.6 nM. The Max drop in experiment [4] and in experiment [7] was 98% each time.

`CCOC(=O)/C=C1\C2C3C=CC(CC3)C2C(=O)N1Cc1ccc(-c2ccccc2-c2nn[nH]n2)cc1` (stereo in doubt; 7): the Duration in experiment [5] amounted to 13 h; in experiment [2] (30 mg/kg), 10 h. In addition, the figures for the Onset in experiment [6] and in experiment [1] (30 mg/kg) were 1 h and 0.25 h, respectively. For the same compound, the Kb in experiment [3] was 10 nM. Further, the Max drop is reported as 43% in experiment [4] (30 mg/kg) and 86% in experiment [7].

With `CCCCC1(CC)CC(=O)N(Cc2ccc(-c3ccccc3-c3nn[nH]n3)cc2)/C(=C/C(=O)OCC)C1` (configuration not stated), in experiment [5], the Duration came out at 8 h. Moreover, the Onset in experiment [6] amounted to 0.25 h. The Kb in experiment [3] is 100 nM. Moreover, the Max drop in experiment [4] and in experiment [7] was 55% throughout.

Consider `CCOC(=O)/C=C1\CC2(CCCC2)C(=O)N1Cc1ccc(-c2ccccc2-c2nn[nH]n2)cc1`, for which the Onset in experiment [1] is 2 h. The compound also showed a Duration in experiment [2] of 3 h. Also, in experiment [3], the Kb was 3.16 nM. Also, the Max drop in experiment [4] is reported as 20%.

On to `CCOC(=O)/C=C1\CC(C)(CC)CC(=O)N1Cc1ccc(-c2ccccc2-c2nn[nH]n2)cc1` (stereo in doubt; 9), for which the Duration in experiment [5] (30 mg/kg) is 24 h; in experiment [2] it was <24 h. The Onset in experiment [6] (30 mg/kg) and in experiment [1] was 0.25 h each time. The Kb in experiment [3] is 1 nM. The Max drop in experiment [4] (30 mg/kg) and in experiment [7] (30 mg/kg) was 100% in each case. This compound also registered a Dose in experiment [8] of 3 mg/kg.

With `CCCC1(CC)CC(=O)N(Cc2ccc(-c3ccccc3-c3nn[nH]n3)cc2)/C(=C/C(=O)OCC)C1` (configuration not stated), the Duration in experiment [5] came out at 6 h. The compound further gave an Onset in experiment [6] of 3 h. Besides, the Kb in experiment [3] is 12.6 nM. In addition, the Max drop in experiment [4] and in experiment [7] was 18% each time.

As for `CCOC(=O)/C=C1\CC2(CCCCCC2)C(=O)N1Cc1ccc(-c2ccccc2-c2nn[nH]n2)cc1`, the Duration in experiment [5] was 16 h; in experiment [2], 23 h. Also, the results for the Onset in experiment [6] and in experiment [1] were 1.5 h and 0.75 h, respectively. For the same compound, in experiment [3], the Kb was 3.98 nM. For the same compound, the figures for the Max drop in experiment [4] and in experiment [7] were 31% and 80%, respectively.
